This note sets out measurements from patent publication US5977298A, “Calcitonin derivatives” (Kvowa Hakko Kogyo Co., Ltd., priority 1995, dated 1999).

Where no end group is shown, it is not given here.

Experiment [1] concerns Osteoclast-like multinucleated cells (osteoclasts). As to the kind of experiment: Calcitonin-like biological activity: bone resorption pit formation by osteoclasts on ivory pieces. Format: cell-based, mouse. The conditions noted are these: compound concentration 10^-6 M, 48 hours. On the procedure:
1-1 Preparation of Osteoclasts
Osteoclast-like multinucleated cells which were derived by coculturing mouse osteoblasts and bone marrow cells on collagen gel according to the method described in Akatsu T. et al., J. Bone Miner. Res., 7, 1297-1306 (1992) were used as osteoclasts. That is, osteoblasts derived from mouse vault of skull (5×10^5 cells) were put in a 100 mm dish (IWAKI) collagen-coated with Cellmatrix Type I-A (Nitta Gelatin Co., Ltd.) and cultured for one day in a CO2 incubator (37° C., 5% CO2) [medium: αMEM+10% FCS (both by GIBCO Co., Ltd.)]. After the medium was removed, mouse bone marrow cells (6×10^6 cells) were put on the osteoblasts and 10^-8 M calcitriol (Wako Pure Chemical Industries, Ltd.) and 10^-7 M dexamethasone (Sigma Chemical Co.) were added thereto. TRAP-positive multinucleate cells (osteoclast-like cells) which were obtained 7 days after the inoculation of osteoblasts were used as osteoclasts.
1-2 Culturing of Osteoclasts on Ivory Pieces
After removal of the medium from the dish, and rinsing with PBS(-), a mixture of collagenase and dispase (collagenase: Wako Pure Chemical Industries, Ltd., dispase: Godo Shusei Co., Ltd.) was added thereto to suspend the cells. The cell suspension was put into a tube and centrifuged at 800 rpm for 5 minutes. After removal of the supernatant by suction, the cells were suspended again in αMEM and the suspension was put on ivory pieces (diameter: 4 mm, thickness: 20 μm) in 100 μl portions. The ivory pieces were left to stand in a CO2 incubator for 2 hours to attach the osteoclasts thereto, and then taken out and gently transferred to a 48-well plate (IWAKI) to which a medium containing a test compound had been added in advance to determine the bone resorption activity 48 hours later according to the method described below. The medium containing the test compound was prepared by adding the test compound dissolved in HEPES buffer to the medium described in 1-1 to give the final concentrations shown in Tables 2 and 3.
1-3 Determination of Bone Resorption Activity by Staining of Ivory Pieces and Measurement of Bone Resorption Pit Area
The ivory pieces taken out of the medium were put into a tube containing 0.1 N aqueous ammonia and subjected to sonication treatment with a sonicator for 20-30 seconds to remove the osteoclasts. After being washed with distilled water to remove ammonia, the ivory pieces were dipped in a hematoxylin-eosin staining solution to stain resorption pits. The bone resorption pit formation rate was calculated based on microphotographs of stained ivory pieces according to the following equation by the use of an image analyzer. [formula]
The bone resorption inhibitory activity of test compounds were calculated according to the following equation. [formula]
A; Bone resorption pit formation rate obtained using no test compound
B; Bone resorption pit formation rate obtained using a test compound

The subject of the next experiment is male SD strain rats. Nature of the experiment: Serum calcium content after intravenous administration to rats. The format is in vivo, rat. The note with it: 60 minutes after administration; for Serum calcium Content: 0.5 ml i.v. tail vein, value ± standard error. On the procedure:
Four-weeks-old male SD strain rats (Clea Japan, Inc.) were fasted for 24 hours before the test and were offered in groups each consisting of 8 rats. Each rat of the control group was given 0.5 ml of physiological saline (Otsuka Pharmaceutical Co., Ltd.) containing 1% BSA (Sigma Chemical Co.) by intravenous administration through the tail vein. In the same manner, each rat of Compound 9-administered groups was given 0.5 ml of a solution of Compound 9 in physiological saline containing 1% BSA. Blood was collected from the right femoral artery of a rat 60 minutes after the administration and was centrifuged at 4° C. at 3000 rpm for 15 minutes to obtain a blood serum, and the serum calcium content was determined with calcium C-test WAKO (Wako Pure Chemical Industries, Ltd.). The results are expressed in terms of value ± standard error, and the difference was judged to be statistically significant at P <0.05 according to the Williams-Wilcoxon test.

As to “Compound 9: SEQ ID NO:9; cyclic peptide Compound 16 condensed to the N-terminus of the Compound 25 peptide (GNWHGTAPDGLGSLTEVLAKLAEYPRTNTGSGTP-NH2; lactam (positions not given here); not fully specified (bridges); printed as ⌐GNWHGTAPDGLGSLTEVLAKLAEYPRTNTGSGTP┐— NH$_2$; also: cyclic peptide Compound 16 condensed at N-terminus)”, the “Bone resorption inhibitory activity (% inhibition)” value in experiment [1] stood at 53%. Besides, the “Serum calcium Content” value came to 10.41 ± 0.13 mg/dL with male SD strain rats (compound concentration 1 μg/ml); 10.20 ± 0.16 mg/dL in the experiment with male SD strain rats (compound concentration 10 μg/ml); 7.54 ± 0.29 mg/dL with male SD strain rats (compound concentration 100 μg/ml, P < 0.01 vs control). In addition, the “serum calcium content compared with that of the control group” value with male SD strain rats (concentration of 100 μg/l (so in the source), 0.5 ml i.v.) is “significantly lowered”.
